The test system of test [1] is JNK. Briefly: JNK activity in vitro. In kind it is biochemical. Conditions: data not shown.
The test system of test [2] is HSP70 promoter. Briefly: HSP70 promoter reporter transcriptional assay in MEFs (luciferase). The class given is cell-based, mouse. The method, then:
(§1) FIGS. 5B and 5C are photographs of Western blots showing that compound 1 binds HSP90 and causes HSF1-dependent expression of HSP70 and HSP25. A: Wild-type or HSF1 null MEFs were transfected with pGL3B-HSP70, an HSP70 promoter reporter construct, or parental vector (pGL3B), then treated with 40 μM of compound 1 for 24 hours and analyzed for luciferase content as described in Materials and Methods (*=P<0.005 relative to 0 compound 1; **=P<0.005 relative to wild-type MEFs treated with 40 uM compound 1. B: Wild-type or HSF1 null MEFs were treated with increasing concentrations of compound 1 for 24 hours, cells were lysed, normalized for protein content, and analyzed for levels of HSP70, HSP40, and HSP25 as indicated. C: Compound 6-conjugated Sepharose beads were incubated with purified HSP90 for 2 hours, washed, and levels of bound HSP90 were analyzed by immunoblot. Con=Control beads, Alone=Compound 6-beads alone, Comp=[…]+competing compound 1 (at 80 μM). Experiments in Panel A-C were performed three times with identical results.
Induction of cell stress results in the interaction of HSP90 with misfolded proteins and disrupts its association with HSF1, allowing it to bind and activate HSP70 and HSP25 promoters (Sanchez-Perez and Perona, 1999). […]

Test [3] has as its system HSP70 promoter. Briefly: HSP70 transcriptional reporter constructs in PC12 cells. As to conditions: transfected PC12 cells. In kind it is cell-based.
Test [4] relates to HSP90. Briefly: Compound 6-bead pulldown of purified HSP90. Conditions: competing compound at 80 μM. In kind it is binding. The method, then: as §1
Compound 6 was coupled with Affi-Gel 10 beads (BioRad) and used as an affinity reagent in pulldown experiments. Beads were incubated either with whole cell lysates or with purified HSP90, washed extensively, and bound proteins were then eluted and analyzed by SDS-PAGE and immunoblotting. […]

Test [5] deals with HSP90. Kind of test: ATP-Sepharose interaction assay. In kind it is binding. As to conditions: purified HSP90 pre-incubated with substance. How it is done:
Bound HSP90 was eluted HSP90 content was determined by immunoblotting.
ATP-Sepharose Interaction Assays. These were performed essentially as described in (Grenert et al., 1997). […] 25 ul of ATP-sepharose beads were added and the reactions were incubated for 30 min at 30° C. After thorough washing with ice-cold incubation buffer, bound proteins were eluted in sample buffer and HSP90 content was determined by immunoblotting.

In the case of `NS(=O)(=O)c1nn2cc(-c3ccccc3)nc2s1` [Compound 1], the “effect on JNK activity in vitro” value in test [1] is recorded as “no effect”. For the same compound, the “transcriptional activity of the HSP70 promoter reporter construct” value was “remained at baseline” in test [2] (MEFs lacking HSF1, 40 μM) and “strongly induced” in test [2] (wild-type MEFs, 40 μM). Moreover, the “activity of HSP70 transcriptional reporter constructs” value in test [3] is listed as “stimulated”. Also, the “effect of excess unbound compound on compound 6-bead:HSP90 interaction” value in test [4] is listed as “strongly attenuated”. In test [5], the “binding of HSP90 to gATP-Sepharose” value was “does not decrease the amount of HSP90 bound to gATP-Sepharose but rather increased their association”.

The values are drawn from patent US20090179638A1, “ASSAY FOR IDENTIFYING INHIBITORS OF NEURONAL APOPTOTIC PATHWAYS” (AEGERA THERAPEUTICS INC., priority 2006, published 2009).
